# T1: hOCTN2 (Homo sapiens, UniProt O76082)
# T1 sequence (O76082 1-557): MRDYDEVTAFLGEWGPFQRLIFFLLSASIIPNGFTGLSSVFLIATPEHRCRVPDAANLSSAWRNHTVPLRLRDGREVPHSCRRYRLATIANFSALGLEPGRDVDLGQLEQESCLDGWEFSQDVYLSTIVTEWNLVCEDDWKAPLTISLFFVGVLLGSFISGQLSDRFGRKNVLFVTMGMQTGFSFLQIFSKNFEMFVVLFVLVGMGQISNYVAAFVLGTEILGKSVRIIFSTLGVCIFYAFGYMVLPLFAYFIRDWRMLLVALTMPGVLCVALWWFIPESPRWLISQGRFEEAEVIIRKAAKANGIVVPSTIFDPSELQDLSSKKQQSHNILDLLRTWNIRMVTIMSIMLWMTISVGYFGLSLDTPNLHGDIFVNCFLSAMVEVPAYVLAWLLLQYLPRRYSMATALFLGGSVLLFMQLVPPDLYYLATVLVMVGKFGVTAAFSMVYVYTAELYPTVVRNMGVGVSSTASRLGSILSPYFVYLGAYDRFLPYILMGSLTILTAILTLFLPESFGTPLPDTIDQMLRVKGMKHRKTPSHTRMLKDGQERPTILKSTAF
# B1: hOCTN2 (Homo sapiens) (protein)
# chain: T1 sequence (O76082 1-557)
# notes: expressed in transfected cells; host or cells: CHO-TREx cells (CHO-TREx-OCTN2 inducible cell line)
# Key:
# PgP = molecular target: T2, PgP (Homo sapiens, UniProt P08183); experiment: Transwell monolayer efflux assay, MDCK cells with TREx-PgP; assay type: cell-based
# T2 construct: expressed in transfected cells; host or cells: MDCK cells
# T2 sequence (P08183 whole entry): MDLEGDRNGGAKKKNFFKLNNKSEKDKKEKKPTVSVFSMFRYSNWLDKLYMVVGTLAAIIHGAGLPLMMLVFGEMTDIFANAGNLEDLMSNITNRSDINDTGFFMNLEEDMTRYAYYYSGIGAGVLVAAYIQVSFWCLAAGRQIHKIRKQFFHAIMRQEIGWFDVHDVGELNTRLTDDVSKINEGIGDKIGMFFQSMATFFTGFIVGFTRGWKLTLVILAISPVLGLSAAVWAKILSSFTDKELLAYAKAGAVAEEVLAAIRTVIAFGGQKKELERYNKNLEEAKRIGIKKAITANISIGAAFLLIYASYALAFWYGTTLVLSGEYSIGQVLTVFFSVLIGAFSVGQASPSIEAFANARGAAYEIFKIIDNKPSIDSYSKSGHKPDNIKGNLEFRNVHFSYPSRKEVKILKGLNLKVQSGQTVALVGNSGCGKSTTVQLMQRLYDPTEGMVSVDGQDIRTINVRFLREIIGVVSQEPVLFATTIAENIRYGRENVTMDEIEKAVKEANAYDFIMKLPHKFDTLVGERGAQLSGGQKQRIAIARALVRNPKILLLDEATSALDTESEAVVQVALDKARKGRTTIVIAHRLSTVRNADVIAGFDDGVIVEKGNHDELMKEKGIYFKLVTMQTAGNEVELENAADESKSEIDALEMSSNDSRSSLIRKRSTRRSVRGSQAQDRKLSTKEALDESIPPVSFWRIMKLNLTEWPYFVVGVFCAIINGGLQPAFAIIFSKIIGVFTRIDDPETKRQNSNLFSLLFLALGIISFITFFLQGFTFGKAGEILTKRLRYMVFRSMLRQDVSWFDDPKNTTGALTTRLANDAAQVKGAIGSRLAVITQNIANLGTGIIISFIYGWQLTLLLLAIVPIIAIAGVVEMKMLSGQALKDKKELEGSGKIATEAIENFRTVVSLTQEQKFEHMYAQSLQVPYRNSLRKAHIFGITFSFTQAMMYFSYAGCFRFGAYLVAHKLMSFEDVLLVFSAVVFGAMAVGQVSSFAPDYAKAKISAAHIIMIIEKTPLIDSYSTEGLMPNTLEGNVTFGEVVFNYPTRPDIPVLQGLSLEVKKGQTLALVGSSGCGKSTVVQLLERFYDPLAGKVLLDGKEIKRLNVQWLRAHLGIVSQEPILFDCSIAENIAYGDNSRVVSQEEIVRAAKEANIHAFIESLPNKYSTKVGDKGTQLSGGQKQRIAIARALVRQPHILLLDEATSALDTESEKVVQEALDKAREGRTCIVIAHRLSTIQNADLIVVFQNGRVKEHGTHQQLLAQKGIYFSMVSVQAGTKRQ
# Procedure: Transwell monolayer efflux assays can be performed by transfecting MDCK cells with the tetracycline-inducible TREx-PgP expression vector. The cells optionally can be transfected with a nucleic acid encoding the transporter of interest. The transfected cells are seeded on polycarbonate filter membranes in transwell dishes and grown for 3-5 days, yielding a polarized monolayer with tight junctions between cells.
# hOCTN2 [1] = molecular target: T1, hOCTN2; experiment: Oocyte uptake assay, oocytes injected with OCTN2 cRNA; assay type: cell-based; design: expressed in transfected cells; host or cells: Xenopus oocytes injected with OCTN2 cRNA; details: Xenopus oocytes
# hOCTN2 [2] = molecular target: T1, hOCTN2; experiment: hOCTN2 direct uptake assay (LC-MS-MS, CHO-TREx-hOCTN2 cells); assay type: cell-based; design: expressed in transfected cells; host or cells: CHO-TREx cells (CHO-TREx-OCTN2 inducible cell line); details: CHO-TREx-hOCTN2 cells induced to express hOCTN2, specific uptake
# Procedure: (§1) A modified direct uptake assay was developed to determine the ability of test compounds to be transported into CHO-TREx cells induced to over-express hOCTN2. Four concentrations (bracketing the affinity as measured by competition assays) per compound were routinely tested. Non-specific uptake was determined by measuring the uptake into cells not induced to express the transporter (“no tet”).
# (§2) The direct uptake assays were prepared as follows: Compounds were prepared for assay by diluting a 100 mM stock concentration (in DMSO or water, depending on compound solubility) to the appropriate working concentration. Typically, four concentrations bracketing the IC50 were tested. The highest test concentration for each compound was made in an Eppendorf tube and diluted into HBSS. The samples were robustly vortexed and centrifuged for 10 minutes at 13,200 rpm to spin down any precipitate. The supernatant from these samples (˜150 μl/well) was carefully removed and placed into six wells of row A (cmpd 1: A1-6; cmpd 2: A7-12) or row E (cmpd 3: E1-6; cmpd 4: E7-12) of a 96-well polypropylene “compound” plate. Three additional 2-fold dilutions were made in the subsequent rows (B-D or […]) in HBSS. […]
# hOCTN2 [3] = molecular target: T1, hOCTN2; experiment: hOCTN2 competition uptake assay (3H-carnitine uptake into CHO-TREx-hOCTN2 cells); assay type: cell-based; design: expressed in transfected cells; host or cells: CHO-TREx cells (CHO-TREx-OCTN2 inducible cell line)
# Procedure: A modified competition uptake assay was developed to determine the ability of a test compound(s) to inhibit the uptake of radiolabeled substrates into CHO-TREx-hOCTN2 cells induced to over-express hOCTN2. The results are stated as affinities (IC50).
# The competition uptake assay was prepared as follows: Compounds were prepared for assay by diluting a 100 mM stock concentration (in DMSO) to the appropriate working concentration. Typically, seven-point dose response curves were prepared starting at a final assay concentration of 1 mM and carrying out three-fold dilutions. […]
# Scintillation fluid (200 μl) (Optiphase Supermix (Perkin Elmer) was added to each well, and the plate was covered with a 96-well adhesive plate cover and placed on a shaker for 10 minutes. The plates were counted on a 96-well plate scintillation counter for 60 sec/well. The data were analyzed using a sigmoidal dose response curve-fitting program (Prism, GraphPad, Inc, San Diego, Calif.; equation: one-site competition).
# FIG. 7 depicts the results of a competition experiment using CHO-TREx-OCTN2 cells. ^3H-carnitine was used as the substrate and unlabeled carnitine was used as the competitor. […] Non-specific uptake was determined by measuring the uptake into cells not induced to express the transporter (“no tet”). […]
# [4] = substrate: C[N+](C)(C)CC(O)CC(=O)[O-]; experiment: hOCTN2 direct uptake assay (LC-MS-MS, CHO-TREx-hOCTN2 cells); assay type: cell-based, human; details: other: CHO-TREx-hOCTN2 cells induced to express hOCTN2, specific uptake
# Procedure: as §1, §2
# [5] = 2.5 nM 3H-vinblastine, in the presence of 250 μM verapamil
molecule,measurement,setting,value
"CC[C@]1(O)C[C@@H]2CN(CCc3c([nH]c4ccccc34)[C@@](C(=O)OC)(c3cc4c(cc3OC)N(C)[C@H]3[C@@](O)(C(=O)OC)[C@H](OC(C)=O)[C@]5(CC)C=CCN6CC[C@]43[C@@H]65)C2)C1 [^3H-vinblastine, vinblastine]",apical to basolateral transport,PgP; [5],strongly increased
same,basolateral to apical transport,PgP; [5],strongly decreased
same,PgP substrate status,PgP; concluded from transport with and without verapamil,substrate of PgP
"C[N+](C)(C)CC(O)CC(=O)[O-] (centres unmarked) [Carnitine, carnitine]",3H-carnitine uptake in OCTN2-expressing oocytes versus noninjected controls,hOCTN2 [1],higher levels of ^3H-carnitine uptake than noninjected controls
same,Direct Uptake Vmax,hOCTN2 [2],7.7 pmol/min/well
same,uptake of labeled carnitine with increasing unlabeled carnitine,"hOCTN2 [3]; cells induced to express OCTN2, unlabeled carnitine as competitor",uptake of labeled carnitine decreased as the concentration of unlabeled carnitine increased
same,IC50,"hOCTN2 [3]; inhibition of 3H-carnitine uptake, CHO-TREx-hOCTN2 cells induced to express hOCTN2",6.3 µM
B1,Km,[4],300 µM
